The first assay addresses T1, human HPK1 protein (Homo sapiens, UniProt Q92918).
T1 construct: recombinant human HPK1 protein (a.a. 1-346) was expressed in Sf9 insect cells; GST (N); purchased Signalchem M23-11G; host or cells: Sf9 insect cells (baculovirus)
T1 sequence (Q92918 1-346): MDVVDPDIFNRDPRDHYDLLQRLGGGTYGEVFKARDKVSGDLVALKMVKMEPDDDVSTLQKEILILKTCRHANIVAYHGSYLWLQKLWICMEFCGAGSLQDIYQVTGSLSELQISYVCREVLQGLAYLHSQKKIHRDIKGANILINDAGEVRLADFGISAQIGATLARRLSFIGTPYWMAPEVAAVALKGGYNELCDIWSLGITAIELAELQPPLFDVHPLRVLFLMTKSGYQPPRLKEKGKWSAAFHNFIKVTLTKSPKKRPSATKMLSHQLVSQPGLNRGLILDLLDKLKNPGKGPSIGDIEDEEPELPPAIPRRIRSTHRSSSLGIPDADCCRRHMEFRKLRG
Kind of assay: Human HPK1 protein TR-FRET assay. Format: biochemical. To be noted: 1 mM ATP, Table 19. Summed up:
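GST-tagged HPK1 (a.a. 1-346, Sf9-expressed) at 10 nM phosphorylated 100 nM ULight CREBtide with 1 mM ATP in Tris pH 7.5, MgCl2, NP-40, DTT, 1% DMSO, 60 minutes at room temperature. Phospho-Ser133 detected by Eu-antibody TR-FRET (665/615 nm ratio); IC50 from 4-parameter fit against DMSO control.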
The term IC50 denotes the concentration at which inhibition is half-maximal. Lower therefore signals greater potency in that assay. As to `CCN1CCN(Cc2ccc(NC(=O)N3CCc4c(F)cc(Oc5ccnc6[nH]ccc56)cc4C3C)cc2C(F)(F)F)CC1` (centres unmarked) [IV-15], the IC50 was < 500 nM.

For `Cc1cc2c(Oc3cnc4c(c3)CN(C(=O)Nc3cnc(OC5CCN(C)CC5)c(C(F)(F)F)c3)CC4C)ncnc2[nH]1` (centres unmarked) [VII-14], the IC50 is < 500 nM.

Regarding `CCN1CCN(Cc2ccc(NC(=O)C3CCc4ccc(Oc5cc(NC)ncn5)cc4C3)cc2C(F)(F)F)CC1` (centres unmarked) [compound 12, N-(4-((4-ethylpiperazin-1-yl)methyl)-3-(trifluoromethyl)phenyl)-7-((6-(methylamino)pyrimidin-4-yl)oxy)-1,2,3,4-tetrahydronaphthalene-2-carboxamide], the IC50 lay within 500 to 5000 nM.

In turn, `Cc1cc2c(Oc3ccc4c(c3)[C@H](C)N(C(=O)Nc3cnc(OC5CCN(C)CC5C)c(C(F)(F)F)c3)CC4)ccnc2[nH]1` (stereo in doubt) [VI-4] came in with an IC50 of 500 to 5000 nM.

Turning to `CCN1CCN(Cc2ccc(NC(=O)N3CCc4ccc(Oc5ccnc6c5CCC(=O)N6)cc4C3)cc2C(F)(F)F)CC1` [II-11], the half-maximal inhibitory concentration (IC50) was < 500 nM.

Consider `CCN1CCN(Cc2ccc(NC(=O)C3CCc4ccc(Oc5ncnn6cccc56)cc4C3)cc2C(F)(F)F)CC1` (centres unmarked) [compound 13, N-(4-((4-ethylpiperazin-1-yl)methyl)-3-(trifluoromethyl)phenyl)-7-(pyrrolo[2,1-f][1,2,4]triazin-4-yloxy)-1,2,3,4-tetrahydronaphthalene-2-carboxamide], for which the IC50 was < 500 nM.

`Cc1cc2c(Oc3ccc4c(c3)[C@H](C)N(C(=O)Nc3cnc(OCCCN(C)C)c(C(F)(F)F)c3)CC4)ccnc2[nH]1` [VI-16]: the IC50 was 500 to 5000 nM.

The assay is the same for the next values; noted with them: 1 mM ATP, Table 20.
`Cc1cc2c(Oc3cnc4c(c3)CN(C(=O)Nc3ccc(CN5CCN(C)CC5)c(OC(F)F)c3)C[C@H]4C)ccnc2[nH]1` [XIV-93]: the IC50 is < 500 nM.

Take `C[C@H]1c2cc(Oc3ccnc4[nH]c(C5(O)COC5)cc34)ccc2CCN1C(=O)Nc1ccc(CN2CCNCC2)c(C(F)(F)F)c1` [XIII-7]: the IC50 was < 500 nM.

With `CCC1CN(C(=O)Nc2ccc(CN3CCN(CC)CC3)c(C(F)(F)F)c2)Cc2cc(Oc3ccnc4[nH]c(C5=CCOCC5)cc34)cnc21` (centres unmarked) [XIV-61], the IC50 is < 500 nM.

Take `CC[C@@H]1CN(C(=O)Nc2ccc(CN3CCN(CC)CC3)c(C(F)(F)F)c2)Cc2cc(Oc3c(F)cnc4[nH]c(-c5cnn(C)c5)cc34)cnc21` [XIV-39]: the half-inhibitory concentration (IC50) is < 500 nM.

For `CCN1CCN(Cc2ccc(NC(=O)N3Cc4cc(Oc5cc(N)ncc5F)cnc4C(C)C3)cc2C(F)(F)F)CC1` (single isomer, unassigned) [XIV-18], the half-maximal inhibitory concentration (IC50) fell in the range of 5000 to 10000 nM.

Take `CC[C@H]1CN(C(=O)Nc2ccc(CN3CCN(C)CC3)c(C(F)(F)F)c2)Cc2cc(Oc3ccnc4[nH]c(C(=O)NC)cc34)cnc21` [XIV-85]: the IC50 is < 500 nM.

On to `CC[C@@H]1CN(C(=O)Nc2ccc(CN3CCN(C)CC3)c(C(F)(F)F)c2)Cc2cc(Oc3ccnc4[nH]c(CO)cc34)cnc21` [XIV-56], for which the 50% inhibitory concentration (IC50) was < 500 nM.

In turn, `CCN1CCN(Cc2ccc(NC(=O)N3CCc4ncc(Oc5ncnc6[nH]c(C)cc56)cc4[C@H]3C)cc2C(F)(F)F)CC1` [XI-8] gave an IC50 of 5000 to 10000 nM.

Take `CN1CCN(Cc2ccc(NC(=O)N3CCc4ccc(Oc5c(F)cnc6[nH]c(-c7ccncc7)cc56)cc4C3)cc2C(F)(F)F)CC1` [XII-5]: the IC50 was < 500 nM.

Regarding `C[C@H]1c2cc(Oc3ccnc4[nH]c(C5(O)COC5)cc34)ccc2CCN1C(=O)Nc1ccc(CN2CCN(CCO)CC2)c(C(F)F)c1` [XIII-11], the half-maximal inhibitory concentration (IC50) was < 500 nM.

As for `CCC1CN(C(=O)Nc2ccc(CN3CCN(CC)CC3)c(C(F)(F)F)c2)Cc2cc(Oc3ccnc4[nH]c(-c5cnn(C)c5)cc34)cnc21` (centres unmarked) [XIV-54], the 50% inhibitory concentration (IC50) was < 500 nM.

Consider `C[C@H]1CN(C(=O)Nc2ccc(CN3CCN(C)CC3)c(C(F)(F)F)c2)Cc2cc(Oc3c(F)cnc4[nH]c(CO)cc34)ccc21` [XV-38], for which the IC50 was < 500 nM.

For the compound `CN1CCN(Cc2ccc(NC(=O)N3CCc4ccc(Oc5c(F)cnc6[nH]c(C7(O)CC7)cc56)cc4C3)cc2C(F)(F)F)CC1` [XVIII-6], the IC50 is < 500 nM.

For the origin of these results see patent US20210139484A1, “DIHYDROISOQUINOLINE-2(1H)-CARBOXAMIDE AND RELATED COMPOUNDS AND THEIR USE IN TREATING MEDICAL CONDITIONS” (GOSSAMER BIO SERVICES, INC., priority 2018, published 2021).
